According to article PMC8124228, “New Hybrids Based on Curcumin and Resveratrol: Synthesis, Cytotoxicity and Antiproliferative Activity against Colorectal Cancer Cells” (Molecules, 2021):
Like-named read-outs stand apart in the source and are kept apart here.

Columns and labels:
[1] = system: SW480 human colon adenocarcinoma cells; assay: Sulforhodamine B (SRB) cytotoxicity assay, SW480; format: cell-based; conditions: for SI (selectivity index): IC50 CHO-K1 / IC50 SW480; for IC50: Homo sapiens, SRB, mean ± SE
Experimental: (§1) To determine the cytotoxic effect of the synthesized hybrids, they were evaluated against SW480 human colon adenocarcinoma cells, its metastatic derivative SW620 and the non-malignant CHO-K1 cell line, through the sulforhodamine B assay. In this experiment, 5-FU was also included as the reference drug, as well as the parental subunits (curcumin and resveratrol) and the equimolar mixture of these. Cytotoxicity was reported as 50% inhibitory concentration (IC50 values).
(§2) Biological assays were performed using an adenocarcinoma colon cancer cell line (SW480), its metastatic derivative (SW620) and non-malignant cells (CHO-K1). These were obtained from The European Collection of Authenticated Cell Cultures (ECACC, England) and maintained in Dulbecco’s Modified Eagle Medium, supplemented with 10% heat-inactivated (56 °C) horse serum, 1% penicillin/streptomycin and 1% non-essential amino acids (Gibco Invitrogen, Carlsbad, USA). For all experiments, horse serum was reduced to 3%, and the medium was supplemented with […], 5 ng/mL selenium and […] (ITS-defined medium; Gibco, Invitrogen, Carlsbad, CA, USA).
(§3) Cytotoxicity of the synthesized hybrids, lead and reference compounds was evaluated through Sulforhodamine B (SRB) assay, a colorimetric test that is based on staining of total cellular protein of adherent cells. Cells were seeded to a final density of 20,000 cells/well in 96-well tissue culture plates and incubated at 37 °C in a humidified atmosphere at 5% CO2. All cultures were allowed to grow for 24 h, and afterward they were treated with DMSO (vehicle control 1%) or increasing concentrations (0.01–200 µM) of the synthesized hybrids, as well as curcumin and resveratrol (lead compounds), the equimolar mixture of these and 5-fluorouracil (5-FU; the standard drug). After treatment, cells were fixed with trichloroacetic acid (50% v/v) (MERCK) for a period of 1 h at 4 °C. Cell proteins were determined by staining with 0.4% (w/v) SRB (Sigma-Aldrich, United States), and then they were washed with 1% acetic acid for the removal of unbound SRB and left for air-drying. Protein bound SRB was solubilized in 10 mM Tris-base and the absorbance was measured at 492 nm in a microplate reader (Mindray MR-96A). All experiments were performed at least in triplicate.

[2] = system: SW620 cells (metastatic derivative of SW480); assay: Sulforhodamine B (SRB) cytotoxicity assay, SW620; format: cell-based, human; conditions: for SI (selectivity index): IC50 CHO-K1 / IC50 SW620; for IC50: Homo sapiens, SW-620, SRB, mean ± SE
Experimental: as §1, §2, §3

[3] = system: non-malignant CHO-K1 cell line; assay: Sulforhodamine B (SRB) cytotoxicity assay, non-malignant cells; format: cell-based; conditions: Cricetulus griseus, mean ± SE
Experimental: as §1, §2, §3

SW620 cell line = assay: Antiproliferative activity (SRB, 2-8 days), SW620; format: cell-based, human; conditions: for viability at 10 µM / viability at 160 µM: Homo sapiens, vehicle control = 100%, read-out: Viability (%) ± SE; for viability at 10 µM: SW620, 10 µM; for viability at 160 µM: SW620, 160 µM
Experimental: With the aim of testing the antiproliferative effect of the most cytotoxic and selective hybrids (3e and 3i for SW480 and 3a, 3e and 3k for SW620), they were analyzed through a longer period. According to the results in comparison with the control, it was observed that the activity was time- and concentration-dependent, as evidenced by the decrease in cell viability in the highest concentrations (Table 2). […] Similar results were presented in a previous investigation by Herrera-R et al. (2018), reporting the antiproliferative effect and morphological changes in SW480 cells after treatment with different hybrids using a stilbene moiety, which highlights the potential of this scaffold in the approach to design molecules with potential activity against CRC.
Briefly, cells were seeded to a final density of 2500 cells/well in 96-well tissue culture plates and incubated in the same conditions described for cytotoxicity. […] Culture media was replaced every 48 h. After each incubation time, cells were fixed, stained and read as previously described for this technique.

SMILES	SI (selectivity index) ([1]; 24 h)	SI (selectivity index) ([1]; 48 h)	SI (selectivity index) ([2]; 24 h)	SI (selectivity index) ([2]; 48 h)	IC50 ([1]; SW480, 24 h, 24 h) [µM]	IC50 ([1]; SW480, 48 h, 48 h) [µM]	melting point [°C]	IC50 ([2]; 24 h) [µM]	IC50 ([2]; 48 h) [µM]	IC50 ([3]; 24 h) [µM]	IC50 ([3]; 48 h) [µM]	viability at 10 µM (SW620 cell line; SW-620, 48 h, day 2) [%]	viability at 160 µM (SW620 cell line; SW-620, 48 h, day 2) [%]	viability at 10 µM (SW620 cell line; SW-620, 96 h, day 4) [%]	viability at 160 µM (SW620 cell line; SW-620, 96 h, day 4) [%]	viability at 10 µM (SW620 cell line; SW-620, 144 h, day 6) [%]	viability at 160 µM (SW620 cell line; SW-620, 144 h, day 6) [%]	viability at 10 µM (SW620 cell line; SW-620, 192 h, day 8) [%]	viability at 160 µM (SW620 cell line; SW-620, 192 h, day 8) [%]	reduction in viability (SW620 cell line; SW620, after two days of treatment, concentrations higher than 10 µM)
O=c1[nH]cc(F)c(=O)[nH]1 [Hybrid 5-FU, 5-fluorouracil, reference compound]	0.35	0.99	0.59	0.96																
COc1cc(/C=C/c2ccc(C(=O)/C=C/c3ccc(O)c(OC)c3)cc2)cc(OC)c1 [Hybrid 3h, (E)-1-(4-((E)-3,5-Dimethoxystyryl)phenyl)-3-(4-hydroxy-3-methoxyphenyl)prop-2-en-1-one]	2.06	0.93	1.60	1.08	47.2 ± 8.39	24.9 ± 1.65	49 to 51	61 ± 12.8	21.4 ± 3.29	97.4 ± 2.62	23.2 ± 4.07									
COc1cc(/C=C/C(=O)c2ccc(/C=C/c3cc(OC)c(OC)c(OC)c3)cc2)ccc1O [Hybrid 3k, (E)-3-(4-Hydroxy-3-methoxyphenyl)-1-(4-((E)-3,4,5-trimethoxystyryl)phenyl)prop-2-en-1-one]	0.84	0.34	3.65		88.5 ± 4.58	85.8 ± 1.27	74 to 77	20.4 ± 2.43	11.8 ± 1.2	74.6 ± 4.2	29.4 ± 2.29	56.1 ± 4	2.4 ± 0.7	12.1	0	1.9 ± 0.8	0	0.1 ± 0.1	0	significant reduction in viability
COc1cc(/C=C/C(=O)c2ccc(/C=C/c3ccc(O)c(OC)c3)cc2)ccc1O [Hybrid 3j, (E)-3-(4-Hydroxy-3-methoxyphenyl)-1-(4-((E)-4-hydroxy-3-methoxystyryl)phenyl)prop-2-en-1-one]	5.28	0.59	1.50	0.84	7.98 ± 1.53	41.1 ± 7.8	142 to 146	28.1 ± 4.27	28.8 ± 4.57	42.1 ± 4.85	24.3 ± 5.21									
COc1ccc(OC)c(/C=C/c2ccc(C(=O)/C=C/c3ccc(O)c(OC)c3)cc2)c1 [Hybrid 3f, (E)-1-(4-((E)-2,5-Dimethoxystyryl)phenyl)-3-(4-hydroxy-3-methoxyphenyl)prop-2-en-1-one]	1.33	0.27	2.36	0.86	84.4 ± 5.45	88.6 ± 1.84	47 to 51	47.4 ± 10.5	27.6 ± 4.99	112 ± 15.8	23.9 ± 4.01									
COc1cc(/C=C/C(=O)c2ccc(/C=C/c3cccc(OC)c3OC)cc2)ccc1O [Hybrid 3d, (E)-1-(4-((E)-2,3-Dimethoxystyryl)phenyl)-3-(4-hydroxy-3-methoxyphenyl)prop-2-en-1-one]	0.91	0.49	0.44	0.48	34.1 ± 3.92	25.2 ± 3.54	63 to 65	70.5 ± 3.8	26.1 ± 4.24	31 ± 2.93	12.4 ± 3.41									
